Assay results: patent US9057727B2, “Screening methods using G-protein coupled receptors and related compositions” (The General Hospital Corporation, priority 2007, dated 2015)
One block for each molecule: values may come before it. Ends that are not written are not given here. Peptide text beside a SMILES is read from it.

How the values were obtained:
[1] = target: T1, human PTHR, G protein-uncoupled conformation (R^0) (Homo sapiens, UniProt Q03431); assay: Competition binding to R0 conformation of hPTHR (COS-7 membranes, GTPγS, 125I-PTH(1-34) tracer); conditions: for R0/RG ratio: human PTH receptor on COS-7 cell membranes; for R0:RG: Table 5, fold weaker affinity for R0 than RG; for screen human PIR R0 (% parent): parent PTHrP(1-28)NH
T1 construct: expressed in transfected cells; host or cells: COS-7, transient (Fugene-6)
T1 sequence (Q03431 27-593): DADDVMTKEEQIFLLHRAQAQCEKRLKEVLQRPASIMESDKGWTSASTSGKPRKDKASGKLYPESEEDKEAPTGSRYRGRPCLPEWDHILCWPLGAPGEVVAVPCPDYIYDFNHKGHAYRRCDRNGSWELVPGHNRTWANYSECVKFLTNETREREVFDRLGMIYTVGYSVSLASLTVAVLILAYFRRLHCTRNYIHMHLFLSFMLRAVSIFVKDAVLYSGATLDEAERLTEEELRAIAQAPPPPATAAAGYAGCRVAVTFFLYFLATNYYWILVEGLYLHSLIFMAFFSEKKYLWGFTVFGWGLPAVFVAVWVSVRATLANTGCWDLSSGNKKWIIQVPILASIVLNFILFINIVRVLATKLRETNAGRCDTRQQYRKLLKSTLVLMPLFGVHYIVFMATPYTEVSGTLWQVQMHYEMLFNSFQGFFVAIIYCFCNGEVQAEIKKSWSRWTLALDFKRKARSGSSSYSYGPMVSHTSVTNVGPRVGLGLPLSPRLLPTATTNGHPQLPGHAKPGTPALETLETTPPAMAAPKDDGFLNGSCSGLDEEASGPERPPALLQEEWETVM
Procedure: Membranes were prepared from COS-7 cells transfected with the hPTHR alone. GTPγS ([…]) was added to the binding reactions so as to functionally uncouple receptor-heterotrimeric G protein complexes, thus enriching for the R^0 (and R) conformations, relative to RG.
Reactions contained a total membrane protein concentration of 20 to 100 μg/mL, and a total radioactivity concentration of approximately 150,000 cpm/ml. Unlabeled peptide ligands and/or GTPγS (Sigma-Aldrich Inc. St. Louis, Mo.) were added to the reactions as indicated.
Membranes, tracer radioligand, and various concentrations of unlabeled ligands and/or GTPγS were incubated in the wells for 90 minutes, following which, the reaction plates were processed by rapid vacuum filtration to separate bound from free radioligand, as described above. […] For both radioligands, the non-specific binding was determined in reactions containing a saturating concentration of the unlabeled analog of the radioligand. The specifically bound radioactivity was calculated as a percent of the radioactivity specifically bound in the absence of a competing ligand or GTPγS.
To assess the capacities of various unlabeled peptide ligands to bind to the G protein-uncoupled and G protein-coupled PTHR conformations (R^0 and RG, respectively), membranes were prepared from transiently transfected COS-7 cells and the following assay conditions.

[2] = test system: LLCPK1-B64 cells or SaOS-2 cells; assay: cAMP screen of substituted PTHrP(1-28) analogs (% parent); format: cell-based; conditions: parent PTHrP(1-28)NH
Procedure: Alanine substitution at position 18, 22, 25 and 26 increased activity in at least one cell type. These positions were further substituted to various types of amino acids, and cAMP activity was analyzed in LLCPK1-B64 cells (FIG. 27C) or SaOS-2 cells (FIG. 27D). Cells were treated with analogs at 3×10^−9M in the presence of IBMX for 30 minutes at room temperature. Responses for each analog were normalized to the response for the parent (native) PTHrP(1-28) peptide. Alanine substitutions were A^15 to A^17 (SEQ ID NO:152-154), A^18 (SEQ ID NO:34), A^19 to A^21 (SEQ ID NO:155-157), A^22 (SEQ ID NO:39), A^23 to A^25 (SEQ ID NO:158-160), A^26 (SEQ ID NO:46), and A^27 to A^28 (SEQ ID NO:161-162). Substitutions at position 18 were A^18 (SEQ ID NO: 34), G^18 (SEQ ID NO:163), S^18 (SEQ ID NO:35), M^18 (SEQ ID NO:36), L^18 (SEQ ID NO:164), F^18 (SEQ ID NO:37), N^18 (SEQ ID NO:165), E^18 (SEQ ID NO:38), and K^18 (SEQ ID NO:166). Substitutions at position 22 were A^22 (SEQ ID NO:39), G^22 (SEQ ID NO:167), and S^22 to K^22 (SEQ ID NO:40-45). Substitutions at position 26 were A^26 (SEQ ID NO:46), G^26 (SEQ ID NO:168), S^26 (SEQ ID NO:47), L^26 (SEQ ID NO:169), N^26 (SEQ ID NO:48), W^26 to E^26 (SEQ ID NO:170-171), and K^26 to R^26 (SEQ ID NO:49-50). Substitutions at position 25 were G^25 to S^25 (SEQ ID NO:172-173), L^25 (SEQ ID NO:51), N^25 (SEQ ID NO:174), W^25 (SEQ ID NO:52), E^25 (SEQ ID NO:175), and K^25 to R^25 (SEQ ID NO:53-54). […]

[3] = target: T2, human PTHR, G protein-coupled conformation (RG) (Homo sapiens, UniProt Q03431); assay: Competition binding to RG conformation of hPTHR (COS-7 membranes, GαsND, 125I-[Aib1,3,M]PTH(1-15) tracer); conditions: parent PTHrP(1-28)NH
T2 construct: expressed in transfected cells; host or cells: COS-7, transient (Fugene-6); membranes
T2 sequence (Q03431 27-593): T1 sequence (Q03431 27-593)

Molecule: CSCC[C@H](NC(=O)[C@H](CC(C)C)NC(=O)[C@H](CCC(N)=O)NC(=O)[C@H](Cc1c[nH]cn1)NC(=O)[C@H](CCC(=O)O)NC(=O)[C@H](CO)NC(=O)[C@@H](NC(=O)[C@@H](N)CO)C(C)C)C(=O)N[C@@H](Cc1c[nH]cn1)C(=O)N[C@@H](CC(N)=O)C(=O)N[C@@H](CC(C)C)C(=O)NCC(=O)N[C@@H](CCCCN)C(=O)N[C@@H](Cc1c[nH]cn1)C(=O)N[C@@H](CC(C)C)C(=O)N[C@@H](CC(N)=O)C(=O)N[C@@H](CO)C(=O)N[C@@H](CCSC)C(=O)N[C@@H](CCC(=O)O)C(=O)N[C@@H](CCCNC(=N)N)C(=O)N[C@H](C(=O)N[C@@H](CCC(=O)O)C(=O)N[C@@H](Cc1c[nH]c2ccccc12)C(=O)N[C@@H](CC(C)C)C(=O)N[C@@H](CCCNC(=N)N)C(=O)N[C@@H](CCCCN)C(=O)N[C@@H](CCCCN)C(=O)N[C@@H](CC(C)C)C(=O)N[C@@H](CCC(N)=O)C(=O)N[C@@H](CC(=O)O)C(=O)N[C@H](C(=O)N[C@@H](Cc1c[nH]cn1)C(=O)N[C@@H](CC(N)=O)C(=O)N[C@@H](Cc1ccccc1)C(N)=O)C(C)C)C(C)C [[His^5]hPTH(1-34)NH2] (H-SVSEHQLMHNLGKHLNSMERVEWLRKKLQDVHNF-NH2; N-terminus assumed)
R0:RG [1]: 160

Molecule: CSCC[C@H](NC(=O)[C@H](CC(C)C)NC(=O)[C@H](CCC(N)=O)NC(=O)[C@H](Cc1c[nH]cn1)NC(=O)[C@H](CCC(=O)O)NC(=O)[C@H](CO)NC(=O)[C@@H](NC(=O)[C@H](C)N)C(C)C)C(=O)N[C@@H](Cc1c[nH]cn1)C(=O)N[C@@H](CC(N)=O)C(=O)N[C@@H](CC(C)C)C(=O)NCC(=O)N[C@@H](CCCCN)C(=O)N[C@@H](Cc1c[nH]cn1)C(=O)N[C@@H](CC(C)C)C(=O)N[C@@H](C)C(=O)N[C@@H](CO)C(=O)N[C@H](C(=O)N[C@@H](CCC(=O)O)C(=O)N[C@@H](CCCNC(=N)N)C(=O)N[C@@H](CCSC)C(=O)N[C@@H](CCC(N)=O)C(=O)N[C@@H](Cc1c[nH]c2ccccc12)C(=O)N[C@@H](CC(C)C)C(=O)N[C@@H](CCCNC(=N)N)C(=O)N[C@@H](CCCCN)C(=O)N[C@@H](CCCCN)C(=O)N[C@@H](CC(C)C)C(=O)N[C@@H](CCC(N)=O)C(=O)N[C@@H](CC(=O)O)C(=O)N[C@H](C(=O)N[C@@H](Cc1c[nH]cn1)C(=O)N[C@@H](CC(N)=O)C(=O)N[C@@H](Cc1ccccc1)C(N)=O)C(C)C)C(C)C [[His^5]rPTH(1-34)NH2] (H-AVSEHQLMHNLGKHLASVERMQWLRKKLQDVHNF-NH2; N-terminus assumed)
R0:RG [1]: 138

Molecule: CC[C@H](C)[C@H](NC(=O)[C@H](CCC(=O)O)NC(=O)[C@H](CO)NC(=O)[C@@H](NC(=O)[C@H](C)N)C(C)C)C(=O)N[C@@H](CCC(N)=O)C(=O)N[C@@H](CC(C)C)C(=O)N[C@@H](CCSC)C(=O)N[C@@H](Cc1c[nH]cn1)C(=O)N[C@@H](CC(N)=O)C(=O)N[C@@H](CC(C)C)C(=O)NCC(=O)N[C@@H](CCCCN)C(=O)N[C@@H](Cc1c[nH]cn1)C(=O)N[C@@H](CC(C)C)C(=O)N[C@@H](C)C(=O)N[C@@H](CO)C(=O)N[C@H](C(=O)N[C@@H](CCC(=O)O)C(=O)N[C@@H](CCCNC(=N)N)C(=O)N[C@@H](CCSC)C(=O)N[C@@H](CCC(N)=O)C(=O)N[C@@H](Cc1c[nH]c2ccccc12)C(=O)N[C@@H](CC(C)C)C(=O)N[C@@H](CCCNC(=N)N)C(=O)N[C@@H](CCCCN)C(=O)N[C@@H](CCCCN)C(=O)N[C@@H](CC(C)C)C(=O)N[C@@H](CCC(N)=O)C(=O)N[C@@H](CC(=O)O)C(=O)N[C@H](C(=O)N[C@@H](Cc1c[nH]cn1)C(=O)N[C@@H](CC(N)=O)C(=O)N[C@@H](Cc1ccccc1)C(N)=O)C(C)C)C(C)C [rPTH(1-34)NH2, reference compound]
R0:RG [1]: 7

More lines, main results first:

R0/RG ratio [1]: 80
Molecule: CC[C@H](C)[C@H](NC(=O)[C@H](CCC(=O)O)NC(=O)[C@H](C)NC(=O)[C@@H](NC(=O)[C@H](C)N)C(C)C)C(=O)N[C@@H](CCC(N)=O)C(=O)N[C@@H](CC(C)C)C(=O)N[C@@H](CCSC)C(=O)N[C@@H](Cc1c[nH]cn1)C(=O)N[C@@H](CCC(N)=O)C(=O)N[C@@H](CCCNC(=N)N)C(=O)N[C@@H](C)C(=O)N[C@@H](CCCCN)C(=O)N[C@@H](Cc1c[nH]c2ccccc12)C(=O)N[C@@H](CC(C)C)C(=O)N[C@@H](CC(N)=O)C(=O)N[C@@H](CO)C(=O)N[C@@H](CCSC)C(=O)N[C@@H](CCCNC(=N)N)C(=O)N[C@@H](C)C(=O)N[C@H](C(=O)N[C@@H](CCC(=O)O)C(=O)N[C@@H](Cc1c[nH]c2ccccc12)C(=O)N[C@@H](CC(C)C)C(=O)N[C@@H](CCCNC(=N)N)C(=O)N[C@@H](CCCCN)C(=O)N[C@@H](CCCCN)C(=O)N[C@@H](CC(C)C)C(=O)N[C@@H](CCC(N)=O)C(=O)N[C@@H](CC(=O)O)C(=O)N[C@H](C(=O)N[C@@H](Cc1c[nH]cn1)C(=O)N[C@@H](CC(N)=O)C(=O)N[C@@H](Cc1ccccc1)C(=O)O)C(C)C)C(C)C [A20,Mc-PTH(1-34)OH, A^20,Mc-PTH(1-34)OH] (H-AVAEIQLMHQRAKWLNSMRAVEWLRKKLQDVHNF-OH; N-terminus assumed)

IC50 ([1]; Table 4, human PTH1 receptor, read-out: R0 binding IC50): 1.2 ± 0.4 nM
R0/RG ratio [1]: 5
Molecule: CC[C@H](C)[C@H](NC(=O)[C@H](CCC(=O)O)NC(=O)[C@H](C)NC(=O)[C@@H](NC(=O)[C@H](C)N)C(C)C)C(=O)N[C@@H](CCC(N)=O)C(=O)N[C@@H](CC(C)C)C(=O)N[C@@H](CCSC)C(=O)N[C@@H](Cc1c[nH]cn1)C(=O)N[C@@H](CCC(N)=O)C(=O)N[C@@H](CCCNC(=N)N)C(=O)N[C@@H](C)C(=O)N[C@@H](CCCCN)C(=O)N[C@@H](Cc1c[nH]c2ccccc12)C(=O)N[C@@H](CC(C)C)C(=O)N[C@@H](CC(N)=O)C(=O)N[C@@H](CO)C(=O)N[C@@H](CCSC)C(=O)N[C@@H](CCCNC(=N)N)C(=O)N[C@@H](CCCNC(=N)N)C(=O)N[C@H](C(=O)N[C@@H](CCC(=O)O)C(=O)N[C@@H](Cc1ccccc1)C(=O)N[C@@H](CC(C)C)C(=O)N[C@@H](CCCNC(=N)N)C(=O)N[C@@H](CCCCN)C(=O)N[C@@H](CCCCN)C(=O)N[C@@H](CC(C)C)C(=O)N[C@@H](CCC(N)=O)C(=O)N[C@@H](CC(=O)O)C(=O)N[C@H](C(=O)N[C@@H](Cc1c[nH]cn1)C(=O)N[C@@H](CC(N)=O)C(=O)N[C@@H](Cc1ccccc1)C(=O)O)C(C)C)C(C)C [F23,Mc-PTH(1-34)OH, F^23,Mc-PTH(1-34)OH] (H-AVAEIQLMHQRAKWLNSMRRVEFLRKKLQDVHNF-OH; N-terminus assumed)

screen human PIR R0 (% parent) [1]: 160 % parent
screen human PIR RG (% parent) [3]: 167 % parent
Molecule: A18,22,26-PTHrP(1-28) (AVSEHQLLHDKGKSIQDARRRAFLHALI-NH2) [A18, 22, 26-PTHrP(1-28)NH]
screen cAMP (% parent) [2]: 343 % parent

screen human PIR R0 (% parent) [1]: 133 % parent
screen human PIR RG (% parent) [3]: 163 % parent
Molecule: A18,26,L22-PTHrP(1-28) (AVSEHQLLHDKGKSIQDARRRLFLHALI-NH2) [A18, 26, L22-PTHrP(1-28)NH]
screen cAMP (% parent) [2]: 252 % parent
